Experimental findings from publication PMC7859335, “Discovery of Diaryl Ether Substituted Tetrahydrophthalazinones as TbrPDEB1 Inhibitors Following Structure-Based Virtual Screening” (Frontiers in Chemistry, 2021) are described below.

The test system of data set [1] is T.b. brucei Squib-427 strain. Description: Antitrypanosomal phenotypic cellular assay (resazurin). It counts as cell-based. To be noted: Trypanosoma brucei; in vitro, 72 h, mean ± S.E.M. As to the method:
(§1) The phenotypic cellular assays were conducted as previously reported by Blaazer et al. (Blaazer et al., [2018]).
For the antitrypanosomal assay, T.b. brucei Squib-427 strain (suramin-sensitive) was cultured at 37°C and 5% CO2 in HMI-9 medium supplemented with 10% fetal calf serum (FCS). Approximately 1.5 × 10^4 trypomastigotes were added to each well and parasite growth was assessed after 72 h at 37°C by adding resazurin. Viability was assessed fluorimetrically 24 h after addition of resazurin. Fluorescence was measured (excitation 550 nm, emission 590 nm) and the results were expressed as percentage reduction in viability compared to control.
In general terms: Resazurin is reduced to fluorescent resorufin, in cell work by metabolically active cells.

The nature of data set [2]: Cellular cytotoxicity assay (resazurin). The data set is classed as cell-based. The following applies: human. On the procedure: as §1
For the cellular cytotoxicity assay, MRC-5 SV2 cells, originally from a human diploid lung cell line, were cultivated in MEM supplemented with L-glutamine (20 mM), 16.5 mM sodium hydrogen carbonate and 5% FCS. For the assay, 10^4 MRC-5 cells/well were seeded onto the test plates containing the pre-diluted sample and incubated at 37°C and 5% CO2 for 72 h. Cell viability was assessed fluorimetrically 4 h after the addition of resazurin. Fluorescence was measured (excitation 550 nm, emission 590 nm) and the results were expressed as percentage reduction in cell viability compared to controls.

The target in a further data set is T1, TbrPDEB1 (Trypanosoma brucei, UniProt Q8WQX9).
T1 construct: The TbrPDEB1 catalytic domain phosphodiesterase activity assays were conducted based on a method reported by Sijm et al
T1 sequence (Q8WQX9 565-918 limits assumed): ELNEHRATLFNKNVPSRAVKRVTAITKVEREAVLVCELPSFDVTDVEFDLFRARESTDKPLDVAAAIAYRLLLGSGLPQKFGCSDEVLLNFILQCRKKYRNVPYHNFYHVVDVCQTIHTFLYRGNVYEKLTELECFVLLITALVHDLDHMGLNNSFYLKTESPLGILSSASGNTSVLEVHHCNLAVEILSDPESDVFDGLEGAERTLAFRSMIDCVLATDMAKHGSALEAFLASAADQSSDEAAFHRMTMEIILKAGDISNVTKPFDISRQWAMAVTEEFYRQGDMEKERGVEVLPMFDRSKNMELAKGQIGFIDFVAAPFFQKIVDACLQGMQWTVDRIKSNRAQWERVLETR
Description: TbrPDEB1 catalytic domain phosphodiesterase activity assay (PDELight HTS cAMP kit). It counts as biochemical. To be noted: for Ki: full dose-response, mean ± S.E.M.; for inhibition at 10 µM / TbrPDEB1 (% inh.): single point assay at 10 μM inhibitor; for inhibition at 10 µM: read-out: TbrPDEB1 (% inh.). As to the method: The TbrPDEB1 catalytic domain phosphodiesterase activity assays were conducted based on a method reported by Sijm et al. ([2019]) with minor adaptations (Sijm et al., [2019]). The PDELight™ HTS cAMP phosphodiesterase Kit (Lonza, Walkersville, USA) was performed at 25°C in non-binding, low volume 384-well plates (Corning, Kennebunk, ME, USA). […] Single concentration measurements were made at 10 μM inhibitor concentration (triplo measurements/assay, n = 2). Dose-response curves were made in the range 100 μM−10 pM (triplo measurements/assay, n = 3). Compounds were diluted in DMSO (final in-test concentration 1%). Inhibitor dilutions (2.5 μL) were transferred to the 384-well plates, 2.5 μL of PDE in stimulation buffer was added and mixed, 5 μL of cAMP (at 2 × Km up to 20 μM) added and the assay mixture was incubated for 20 min at 300 rpm. […] Then, 5 μL of Lonza Detection reagent (diluted to 80% with reaction buffer) was added and the reaction incubated for 10 min at 300 rpm. Luminescence was read with a Victor3 luminometer using a 0.1 s/well program.
The Ki values of the inhibitors analyzed are represented as the mean of at least three independent experiments with the associated standard error of the mean (S.E.M.).

For `COC(=O)c1cnc(Oc2cc(C3=NN(C(C)C)C(=O)[C@@H]4CC=CC[C@H]34)ccc2OC)cn1` (relative stereo) [2d, Methyl 5-(5-(cis-3-isopropyl-4-oxo-3,4,4a,5,8,8a-hexahydrophthalazin-1-yl)-2-methoxyphenoxy)pyrazine-2-carboxylate], the IC50 (as a rule, the concentration that gives 50% inhibition) in data set [1] turned out to be 16 ± 10 µM. In addition, the CC50 – broadly, the concentration that lowers cell viability or growth by half – at 72 h in data set [2] was more than 64 µM. Further, at TbrPDEB1, the Ki – broadly, the dissociation constant of the complex between target and ligand, obtained from inhibition or displacement – is 0.6 ± 0.2 µM; the inhibition at 10 µM is approximately 50%.
In data set [1], `COc1ccc(C2=NN(C(C)C)C(=O)[C@H]3CC=CC[C@@H]23)cc1Oc1ccc(Cn2ccnc2)cn1` (relative stereo) [2h, cis-4-(3-((5-((1H-Imidazol-1-yl)methyl)pyridin-2-yl)oxy)-4-methoxyphenyl)-2-isopropyl-4a,5,8,8a-tetrahydrophthalazin-1(2H)-one] returned an IC50 of 7.9 ± 8 µM. The compound also returned a CC50 at 72 h in data set [2] of 31 ± 8 µM. Also, on TbrPDEB1, the Ki was found to be 1.3 ± 0.2 µM and the inhibition at 10 µM is approximately 50%.
In data set [1], `COC(=O)c1ccc(Oc2cc(C3=NN(C(C)C)C(=O)[C@@H]4CC=CC[C@H]34)ccc2OC)nc1` (relative stereo) [3c, Methyl 6-(5-(cis-3-isopropyl-4-oxo-3,4,4a,5,8,8a-hexahydrophthalazin-1-yl)-2-methoxyphenoxy)nicotinate] came in with an IC50 of 7.9 ± 8 µM. The same compound returned a CC50 at 72 h in data set [2] of more than 64 µM. For the same compound, on TbrPDEB1, the Ki is 0.8 ± 0.2 µM and the inhibition at 10 µM is not below 50%.
In turn, `COc1ccc(C2=NN(C(C)C)C(=O)[C@@H]3CC=CC[C@H]23)cc1Oc1cccc(C(N)=O)n1` (relative stereo) [3l, 6-(5-(cis-3-Isopropyl-4-oxo-3,4,4a,5,8,8a-hexahydrophthalazin-1-yl)-2-methoxyphenoxy)picolinamide] displayed an IC50 in data set [1] of 16 ± 10 µM. The CC50 at 72 h in data set [2] was more than 64 µM. Moreover, on TbrPDEB1, affinity was put at a Ki of 0.8 ± 0.2 µM and the inhibition at 10 µM was not below 50%.
In data set [1], `CCCCNC(=O)c1cccc(Oc2cc(C3=NN(C(C)C)C(=O)[C@@H]4CC=CC[C@H]34)ccc2OC)n1` (relative stereo) [3s, N-Butyl-6-(5-(cis-3-isopropyl-4-oxo-3,4,4a,5,8,8a-hexahydrophthalazin-1-yl)-2-methoxyphenoxy)picolinamide] registered an IC50 of more than 64 µM. This compound came in with a CC50 at 72 h in data set [2] of more than 64 µM. Moreover, at TbrPDEB1, the Ki was determined as 1.3 ± 0.3 µM and the inhibition at 10 µM was more than 50%.
With `COc1ccc(C2=NN(C(C)C)C(=O)[C@@H]3CC=CC[C@H]23)cc1Oc1ncccc1C(=O)NCc1ccco1` (relative stereo) [3t, N-(Furan-2-ylmethyl)-2-(5-(cis-3-isopropyl-4-oxo-3,4,4a,5,8,8a-hexahydrophthalazin-1-yl)-2-methoxyphenoxy)nicotinamide], the “TbrPDEB1 (% inh.)” value on TbrPDEB1 is “No inhibition”.
`COc1ccc(C2=NN(C(C)C)C(=O)[C@@H]3CC=CC[C@H]23)cc1Oc1cc(C(=O)NCc2ccco2)ccn1` (relative stereo) [3u, N-(Furan-2-ylmethyl)-2-(5-(cis-3-isopropyl-4-oxo-3,4,4a,5,8,8a-hexahydrophthalazin-1-yl)-2-methoxyphenoxy)isonicotinamide]: on TbrPDEB1, the “TbrPDEB1 (% inh.)” value is “No inhibition”.
Regarding `COc1ccc(C2=NN(C(C)C)C(=O)[C@@H]3CC=CC[C@H]23)cc1Oc1ccc(C(=O)NCc2ccco2)cn1` (relative stereo) [3v, N-(Furan-2-ylmethyl)-6-(5-(cis-3-isopropyl-4-oxo-3,4,4a,5,8,8a-hexahydrophthalazin-1-yl)-2-methoxyphenoxy)nicotinamide], the “TbrPDEB1 (% inh.)” value at TbrPDEB1 was “No inhibition”.
`Cc1ccc(C(=O)Nc2ccc(S(=O)(=O)O)c3cc(S(=O)(=O)O)cc(S(=O)(=O)O)c23)cc1NC(=O)c1cccc(NC(=O)Nc2cccc(C(=O)Nc3cc(C(=O)Nc4ccc(S(=O)(=O)O)c5cc(S(=O)(=O)O)cc(S(=O)(=O)O)c45)ccc3C)c2)c1` [suramin, reference compound] registered an IC50 in data set [1] of 0.04 ± 0.02 µM.
